Source: patent US20260206761A1, “HETEROARYL-TRIAZOLE COMPOUNDS AS PESTICIDES” (Bayer Aktiengesellschaft, priority 2019, published 2026)

What was measured:
Type in all cases: in vivo
[1] = test system: adult cat fleas (Ctenocephalides felis); assay: Ctenocephalides felis in-vitro contact test, adult cat flea; details: application rate 5 μg/cm^2 (=500 g/ha), after 48 hours, read-out: activity (efficacy: fleas dead or moribund)
In short: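 Efficacy, as % of fleas dead or moribund, was read 48 h after 5-10 adult cat fleas were confined in glass tubes whose walls carried dried compound film (900 ppm, […]). Fleas failing to escape upward from a 45-50° C plate within 5 min counted as dead or moribund.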

[2] = test system: green peach aphid (Myzus persicae); assay: Myzus persicae oral test; details: 120 h, application rate 4 ppm, after 5 days
In short: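 Readout: % mortality at day 5, where 100% = all aphids dead and 0% = none dead. Feeding via parafilm membrane over compound in IPL41 medium (33%+15% sugar); mixed-age population. Stock in acetone (1:100 w/w), water-diluted.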

[3] = test system: Aedes aegypti strain MONHEIM; assay: Aedes aegypti test (AEDSAE surface treatment & contact assay); details: 24 hours after contact, read-out: efficacy (mortality); for mortality at 4 mg/m2: surface concentration 4 mg/m^2, exposure 30 minutes; for mortality at 20 mg/m2: surface concentration 20 mg/m^2, exposure 30 minutes
In short: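 Percent mortality was read 24 h after adult MONHEIM mosquitoes were held for 30 min on a tile treated with compound. Compound applied from acetone solution (2 mg/ml) containing 2000 ppm rapeseed oil methyl ester, after evaporation.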

[4] = test system: adult engorged female ticks (Rhipicephalus microplus); assay: Rhipicephalus (Boophilus) microplus injection test; details: 168 h, egg deposition after 7 days, read-out: activity (efficacy: infertile eggs); for pest or weed control at 4 pg: application rate 4 pg/animal; for pest or weed control at 0.02 mg: application rate 20 μg/animal
In short: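 Abdominal injection, 1 μL compound/DMSO, n=5 engorged adult females; climate-chamber incubation. Readout d7: fertile egg laying; doubtful eggs held to hatch (~42 d). % efficacy = infertile eggs (100% all infertile).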

[5] = test system: larvae of the banded cucumber beetle (Diabrotica balteata); assay: Diabrotica balteata spray test; details: 168 h, after 7 days, read-out: activity (efficacy: seedlings grown); for pest or weed control at 100 g/ha: application rate 100 g/ha (=32 pg/well); for pest or weed control at 500 g/ha: application rate 500 g/ha (=160 pg/well)
In short: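 Read-out is % efficacy at day 7, 0% meaning no seedling growth and 100% growth equal to uninfested untreated controls. Test solutions (acetone/DMF concentrate diluted with water carrying 1000 ppm emulsifier) were sprayed onto 1-day-germinated wheat seeds, 5 per well, before infestation with 10-20 larvae.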

[6] = test system: larvae of the southern green stink bug (Nezara viridula); assay: Nezara viridula spray test; details: 96 h, after 4 days; for mortality at 100 g/ha: application rate 100 g/ha
In short: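 Larva-infested barley (Hordeum vulgare) plants received a spray of test solution prepared from an acetone/DMF concentrate diluted in emulsifier-containing water (1000 ppm). Percent kill read 4 days later; 0% means no stink bugs dead.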

[7] = test system: Anopheles funestus strain FUMOZ-R; assay: Anopheles funestus test (ANPHFU surface treatment & contact assay); details: 24 hours after contact, read-out: efficacy (mortality); for mortality at 4 mg/m2: surface concentration 4 mg/m^2, exposure 30 minutes; for mortality at 20 mg/m2: surface concentration 20 mg/m^2, exposure 30 minutes
Protocol: Anopheles funestus Test (ANPHFU Surface Treatment & Contact Assay)
(§1) Solvent: Aceton+2000 ppm rapeseed oil methyl ester (RME)
In order to produce a sufficient, active ingredient containing solution it is necessary to solve the test compound in the solvent-mix (acetone at 2 mg/ml/RME 2000 ppm). This solution is pipetted onto a glazed tile and after evaporation of the acetone, adult mosquitoes of the species Anopheles funestus strain FUMOZ-R (Hunt et al., Med. Vet. Entomol. 2005 September; 19(3): 271-275) are placed onto the dried surface. The exposure time is 30 minutes. Mortality in percent (%) is determined 24 hours after contact of the insects to the treated surface. 100% mortality means that all tested insects are dead, whereas 0% means that no insect died.

[8] = test system: Blattella germanica strain PAULINIA; assay: whole plant or invertebrate; details: read-out: efficacy (mortality)
Protocol: Blattella germanica Test (BLTTGE Surface Treatment & Contact Assay)
as §1
In order to produce a sufficient, active ingredient containing solution it is necessary to solve the test compound in the solvent-mix (acetone at 2 mg/ml/RME 2000 ppm). This solution is pipetted onto a glazed tile and after evaporation of the acetone, adult animals of the species Blattella germanica strain PAULINIA are placed onto the dried surface. The exposure time is 30 minutes.
Mortality in percent (%) is determined 24 hours after contact of the insects to the treated surface. 100% mortality means that all tested insects are dead, whereas 0% means that no insect died.

[9] = test system: adult unfed cat fleas (Ctenocephalides felis); assay: Ctenocephalides felis oral test; details: 48 h, read-out: activity (mortality)
In short: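 About 20 adult unfed fleas fed through parafilm on cattle blood containing compound (DMSO stock diluted in blood), blood held at 37 °C and fleas at room temperature. Mortality (%) scored after 2 days.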

[10] = test system: adult brown dog ticks (Rhipicephalus sanguineus); assay: Rhipicephalus sanguineus in-vitro contact test, adult brown dog ticks; details: after 48 hours, read-out: activity (efficacy: ticks dead or moribund); for pest or weed control at 100 g/ha: application rate 1 pg/cm^2 (=100 g/ha)
In short: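 Read-out: % efficacy as dead or moribund ticks, judged 48 h after exposure by failure to climb away from a 45-50° C heating plate within 5 min. Tubes were coated with acetone solution (900 ppm = 5 μg/cm^2 surface dose) and held 5-10 adults each at room temperature.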

[11] = test system: Culex quinquefasciatus strain P00; assay: Culex quinquefasciatus test (CULXFA surface treatment & contact assay); details: 24 hours after contact, read-out: efficacy (mortality)
In short: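 Compound in acetone (2 mg/ml) with 2000 ppm rapeseed oil methyl ester, dried onto glazed tile. Adult mosquitoes exposed to the treated surface for 30 min. Percent mortality scored 24 h after contact.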

[12] = test system: two spotted spidermite (Tetranychus urticae); assay: Tetranychus urticae spray test OP-resistant; details: 144 h, after 6 days
Protocol: Tetranychus urticae—Spray Test OP-Resistant
Solvent: 78.0 parts by weight acetone • 1.5 parts by weight dimethylformamide
Emulsifier: alkylarylpolyglycol ether
To produce a suitable preparation of active compound, 1 part by weight of active compound is mixed with the stated amount of solvents and is diluted with water, containing an emulsifier concentration of 1000 ppm, to the desired concentration. Further test concentrations are prepared by dilution with emulsifier containing water.
French bean (Phaseolus vulgaris) leaf disks infected with all instars of the two spotted spidermite (Tetranychus urticae), are sprayed with a preparation of the active ingredient of the desired concentration.
After 6 days mortality in % is determined. 100% means all spider mites have been killed and 0% means none of the spider mites have been killed.

[13] = test system: green peach aphid (Myzus persicae); assay: Myzus persicae spray test; details: 120 h, application rate 500 g/ha, after 5 days
In short: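 Chinese cabbage leaf disks carrying all instars of M. persicae sprayed with compound in acetone/DMF, diluted in water with 1000 ppm alkylarylpolyglycol ether emulsifier. Percent mortality scored after 5 days (100% = all aphids killed).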

[14] = test system: Rhipicephalus microplus larvae (strain Parkhurst, resistant against synthetic pyrethroids); assay: Rhipicephalus (Boophilus) microplus in-vitro contact test, larval cattle tick; details: after 48 hours, read-out: activity (efficacy: larvae dead or moribund)
In short: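 Larvae (20-50 per tube) exposed to dry compound film on glass tube walls, 5 μg/cm^2 at 900 ppm, applied from acetone. After 48 h at 27° C./85% RH, tubes tapped and negative geotaxis scored; efficacy as percent dead or moribund larvae.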

[15] = test system: fall armyworm larvae (Spodoptera frugiperda); assay: Spodoptera frugiperda spray test; details: 168 h, read-out: activity (mortality)
In short: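 Larvae of fall armyworm placed on dried maize leaf sections previously sprayed with emulsified compound (acetone/DMF solvent, water with 1000 ppm emulsifier). Percent of caterpillars killed recorded on day 7, 0–100% scale.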

Compound	pest or weed control at 5 µg/cm2 [1]	mortality at 4 ppm [2]	mortality at 4 mg/m2 [3]	mortality at 20 mg/m2 [3]	pest or weed control at 4 pg [4]	pest or weed control at 100 g/ha [5]	mortality at 100 g/ha [6]	mortality at 4 mg/m2 [7]	mortality at 20 mg/m2 [7]	mortality at 100 ppm [9]	pest or weed control at 100 g/ha [10]	pest or weed control at 0.02 mg [4]	pest or weed control at 500 g/ha [5]	further results
CC(NC(=O)c1cc(Cl)cc(S(C)(=O)=O)c1)c1nc(Br)nn1-c1ncccn1 (centres unmarked) [I-34]	90%	100%	80 to 100%	80 to 100%	100%	100%	100%	80 to 100%	80 to 100%	100%	–	–	–	mortality at 20 mg/m2 [8]: 80 to 100%
Cc1nc([C@H](C)NC(=O)c2csc(Cl)c2)n(-c2ncccn2)n1 [II-24]	100%	–	80 to 100%	80 to 100%	100%	–	–	80 to 100%	80 to 100%	–	100%	100%	80%	pest or weed control at 5 µg/cm2, 500 g/ha ([10]; application rate 5 μg/cm^2 (=500 g/ha)): 100%; mortality at 4 mg/m2 ([11]; surface concentration 4 mg/m^2, exposure 30 minutes): 80 to 100%; mortality at 20 mg/m2 ([11]; surface concentration 20 mg/m^2, exposure 30 minutes): 80 to 100%; mortality at 500 g/ha ([12]; application rate 500 g/ha): 90%; mortality at 500 g/ha [13]: 90%
CCS(=O)(=O)c1cc(C(=O)N[C@@H](C)c2ncnn2-c2ccc(C#N)cn2)cc(C(F)(F)F)c1 [II-33]	–	100%	80 to 100%	80 to 100%	100%	100%	100%	–	–	100%	80%	100%	100%	pest or weed control at 100 g/ha ([14]; application rate 1 pg/cm^2 (=100 g/ha)): 100%; pest or weed control at 500 g/ha ([14]; application rate 5 pg/cm^2 (=500 g/ha)): 100%; mortality at 100 g/ha [15]: 100%; mortality at 500 g/ha [15]: 83%; mortality at 500 g/ha ([6]; application rate 500 g/ha): 100%; mortality at 100 g/ha ([12]; application rate 100 g/ha): 90%
